Key:
[1] = Permeability in Caco-2 cell; details: human
[2] = biological target: T1, Cytochrome P450 11B2, mitochondrial (Homo sapiens, UniProt P19099); assay: Inhibition of human CYP11B2 expressed in Schizosaccharomyces pombe at 500 nM
T1 sequence (P19099 whole entry): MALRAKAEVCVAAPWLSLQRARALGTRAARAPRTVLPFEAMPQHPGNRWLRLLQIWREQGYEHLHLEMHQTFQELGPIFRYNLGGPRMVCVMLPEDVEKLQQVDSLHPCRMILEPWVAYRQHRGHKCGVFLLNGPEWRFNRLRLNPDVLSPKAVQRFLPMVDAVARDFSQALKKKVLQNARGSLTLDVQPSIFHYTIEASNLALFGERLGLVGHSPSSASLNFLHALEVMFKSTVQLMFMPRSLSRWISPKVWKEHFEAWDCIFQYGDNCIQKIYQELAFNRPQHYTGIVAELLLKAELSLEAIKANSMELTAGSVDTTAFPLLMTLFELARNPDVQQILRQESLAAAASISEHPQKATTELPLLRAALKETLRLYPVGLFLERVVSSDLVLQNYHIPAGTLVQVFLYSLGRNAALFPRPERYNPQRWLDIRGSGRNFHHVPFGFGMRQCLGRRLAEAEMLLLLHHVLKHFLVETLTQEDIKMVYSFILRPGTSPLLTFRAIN

[3] = Half life in rat liver microsome; format: ADME; details: liver microsomes
[4] = biological target: T2, Cytochrome P450 11B1, mitochondrial (Homo sapiens, UniProt P15538); assay: Inhibition of human CYP11B1 expressed in V79 11B1 cells
T2 sequence (P15538 whole entry): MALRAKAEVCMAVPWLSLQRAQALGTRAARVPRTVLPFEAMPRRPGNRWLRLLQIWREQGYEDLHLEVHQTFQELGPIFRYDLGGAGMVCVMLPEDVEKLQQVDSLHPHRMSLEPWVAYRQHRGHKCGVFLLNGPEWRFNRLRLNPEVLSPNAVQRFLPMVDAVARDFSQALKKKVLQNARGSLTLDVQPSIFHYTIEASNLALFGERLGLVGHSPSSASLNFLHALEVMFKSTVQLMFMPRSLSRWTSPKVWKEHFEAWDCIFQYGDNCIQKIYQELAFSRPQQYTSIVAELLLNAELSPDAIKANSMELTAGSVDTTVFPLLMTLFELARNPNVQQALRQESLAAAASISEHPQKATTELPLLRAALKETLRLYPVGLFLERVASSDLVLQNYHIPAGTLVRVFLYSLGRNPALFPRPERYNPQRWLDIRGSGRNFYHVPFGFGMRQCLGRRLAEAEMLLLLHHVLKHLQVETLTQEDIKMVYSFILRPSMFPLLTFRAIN

[5] = biological target: T1, Cytochrome P450 11B2, mitochondrial; assay: Inhibition of human CYP11B2 expressed in V79 11B2 cells

## C[C@]12CC[C@H]3[C@@H](CCC4=CC(=O)CC[C@@]43C)[C@@H]1CC[C@@H]2O [TESTOSTERONE]
[1]
  Papp: 9.4 ×10⁻⁶ cm/s

## CC(C(=O)O)c1cccc(C(=O)c2ccccc2)c1 (stereo not given) [KETOPROFEN]
[1]
  Papp: 25.7 ×10⁻⁶ cm/s

## COc1ccc2c(c1)CCC(c1cccnc1)=C2
[1]
  Papp: 13.5 ×10⁻⁶ cm/s
[2]
  inhibition at 0.5 µM: 98%
[3]
  half-life: 1.12 h

## COc1ccc2c(c1)CCC(c1ccncc1)=C2
[4]
  IC50: 2530 nM
[2]
  inhibition at 0.5 µM: 15%
[5]
  IC50: 2830 nM

## C1=C(n2ccnc2)Cc2ccccc21
[2]
  inhibition at 0.5 µM: 33%
[5]
  IC50: 448 nM

## COc1ccc2c(c1)CCC(n1ccnc1)=C2
[5]
  IC50: 411 nM

## CCC1CC(c2cccnc2)=Cc2ccccc21 (stereo not given)
[4]
  IC50: 1620 nM
[2]
  inhibition at 0.5 µM: 20%
[5]
  IC50: 176 nM

## C(=C/c1cccnc1)/c1ccccc1
[4]
  IC50: 288 nM
[2]
  inhibition at 0.5 µM: 54%
[5]
  IC50: 735 nM

## C(=C\c1cccnc1)/c1ccccc1
[2]
  inhibition at 0.5 µM: 25%

## COc1ccc2c(c1)C=C(c1cccnc1)CC2
[5]
  IC50: 45 nM

## C1=C(n2ccnc2)CCc2ccccc21
[5]
  IC50: 334 nM

From ChEMBL document CHEMBL1146077, “Synthesis and evaluation of heteroaryl-substituted dihydronaphthalenes and indenes: potent and selective inhibitors of aldosterone synthase (CYP11B2) for the treatment of congestive heart failure and myocardial fibrosis” (J Med Chem, 2006)
